# Data taken from US11053204B2, “Pyrimidinyloxy benzene derivatives as herbicides” (FMC Corporation, priority 2015, dated 2021).
# Assays:
# Assay type in all cases: in vivo
# corn (Zea mays) = assay: Test A postemergence, visual injury rating; conditions: 0 is no effect, 100 is complete control
# Procedure, shortened: (§1)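 Scoring: eye-based comparison with untreated controls, 0 for no effect through 100 for complete control, at about day 10. Treatments: directed soil spray preemergence; foliar spray postemergence on 2–10 cm plants at the one- to two-leaf stage. Medium: loam soil with sand.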
# [1] = tested on: galium (catchweed bedstraw, Galium aparine); assay: Test A postemergence, visual injury rating; conditions: 0 is no effect, 100 is complete control
# Procedure, shortened: as §1
# [2] = tested on: blackgrass (Alopecurus myosuroides); assay: Test A postemergence, visual injury rating; conditions: 0 is no effect, 100 is complete control
# Procedure, shortened: as §1
# [3] = tested on: Italian ryegrass (Lolium multiflorum); assay: Test A postemergence, visual injury rating; conditions: 0 is no effect, 100 is complete control
# Procedure, shortened: as §1
# [4] = tested on: barnyardgrass (Echinochloa crus-galli); assay: Test A postemergence, visual injury rating; conditions: 0 is no effect, 100 is complete control
# Procedure, shortened: as §1
# [5] = tested on: giant foxtail (Setaria faberii); assay: Test A postemergence, visual injury rating; conditions: 0 is no effect, 100 is complete control
# Procedure, shortened: as §1
# [6] = tested on: pigweed (Amaranthus retroflexus); assay: Test A postemergence, visual injury rating; conditions: 0 is no effect, 100 is complete control
# Procedure, shortened: as §1
# [7] = tested on: wheat (Triticum aestivum); assay: Test A postemergence, visual injury rating; conditions: 0 is no effect, 100 is complete control
# Procedure, shortened: as §1
# [8] = tested on: ragweed (common ragweed, Ambrosia elatior); assay: Test A postemergence, visual injury rating; conditions: 0 is no effect, 100 is complete control
# Procedure, shortened: as §1
# kochia (Kochia scoparia) = assay: Test A postemergence, visual injury rating; conditions: 0 is no effect, 100 is complete control
# Procedure, shortened: as §1
# [9] = tested on: galium (catchweed bedstraw, Galium aparine); assay: Test C postemergence, plant response rating; conditions: for Plant response rating, Galium: scale 0 to 100; for Galium plant response rating: scale 0 to 100 (0 no effect, 100 complete control)
# Procedure, shortened: (§2)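 Both timings shared one formulation, a non-phytotoxic solvent mixture with surfactant, and a greenhouse period of 13 to 15 d. Preemergence used seeded loam/sand or silt loam soil, postemergence used 2 to 18 cm plants; visual ratings ran from 0 (no effect) to 100 (complete control).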
# [10] = tested on: velvetleaf (Abutilon theophrasti); assay: Test C postemergence, plant response rating; conditions: for Plant response rating, Velvetleaf: scale 0 to 100; for Velvetleaf plant response rating: scale 0 to 100 (0 no effect, 100 complete control)
# Procedure, shortened: as §2
# [11] = tested on: ragweed (common ragweed, Ambrosia elatior); assay: Test C postemergence, plant response rating; conditions: for Plant response rating, Ragweed: scale 0 to 100; for Ragweed plant response rating: scale 0 to 100 (0 no effect, 100 complete control)
# Procedure, shortened: as §2
# [12] = tested on: waterhemp (common waterhemp, Amaranthus rudis); assay: Test C postemergence, plant response rating; conditions: for Plant response rating, Waterhemp: scale 0 to 100; for Waterhemp plant response rating: scale 0 to 100 (0 no effect, 100 complete control)
# Procedure, shortened: as §2
# [13] = tested on: barnyardgrass (Echinochloa crus-galli); assay: Test B flooded paddy test, plant response rating; conditions: 250 g ai/ha; Flood; scale of 0 to 100 where 0 is no effect and 100 is complete control; 13 to 15 days
# Procedure, shortened: (§3)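 In-water treatment: compound dosed into 3 cm flood over soil, water level unchanged throughout. Controls run alongside; visual assessment at day 13–15.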
# [14] = tested on: ducksalad (Heteranthera limosa); assay: Test B flooded paddy test, plant response rating; conditions: 250 g ai/ha; Flood; scale of 0 to 100 where 0 is no effect and 100 is complete control; 13 to 15 days
# Procedure, shortened: as §3
# [15] = tested on: sedge, umbrella (small-flower umbrella sedge, Cyperus difformis); assay: Test B flooded paddy test, plant response rating; conditions: 250 g ai/ha; Flood; scale of 0 to 100 where 0 is no effect and 100 is complete control; 13 to 15 days
# Procedure, shortened: as §3
# rice (Oryza sativa) = assay: Test B flooded paddy test, plant response rating; conditions: 250 g ai/ha; Flood; scale of 0 to 100 where 0 is no effect and 100 is complete control; 13 to 15 days
# Procedure, shortened: as §3
# [16] = tested on: barnyardgrass (Echinochloa crus-galli); assay: Test C preemergence, plant response rating; conditions: Preemergence
# [17] = 125 g ai/ha, 0 to 100 scale, approximately 10 days
structure (smiles),measurement,setting,value
O=C(OCCC(F)(F)F)c1c(Br)cccc1Oc1ncc(Br)cn1 [Compound 33],Corn plant response rating (0 to 100 scale),corn (Zea mays); 125 g ai/ha,30
same,Corn plant response rating (0 to 100 scale),corn (Zea mays); 500 g ai/ha,90
same,Galium plant response rating (0 to 100 scale),[1]; 125 g ai/ha,100
same,Galium plant response rating (0 to 100 scale),[1]; 500 g ai/ha,100
same,Blackgrass plant response rating (0 to 100 scale),[2]; 125 g ai/ha,60
same,Blackgrass plant response rating (0 to 100 scale),[2]; 500 g ai/ha,90
same,"Ryegrass, Italian plant response rating (0 to 100 scale)",[3]; 125 g ai/ha,30
same,"Ryegrass, Italian plant response rating (0 to 100 scale)",[3]; 500 g ai/ha,80
same,Barnyardgrass plant response rating (0 to 100 scale),[4]; 125 g ai/ha,80
same,Barnyardgrass plant response rating (0 to 100 scale),[4]; 500 g ai/ha,100
same,"Foxtail, Giant plant response rating (0 to 100 scale)",[5]; 125 g ai/ha,100
same,"Foxtail, Giant plant response rating (0 to 100 scale)",[5]; 500 g ai/ha,100
same,Pigweed plant response rating (0 to 100 scale),[6]; 125 g ai/ha,100
same,Pigweed plant response rating (0 to 100 scale),[6]; 500 g ai/ha,100
same,Wheat plant response rating (0 to 100 scale),[7]; 125 g ai/ha,20
same,Wheat plant response rating (0 to 100 scale),[7]; 500 g ai/ha,60
same,Ragweed plant response rating (0 to 100 scale),[8]; 125 g ai/ha,30
same,Ragweed plant response rating (0 to 100 scale),[8]; 500 g ai/ha,40
same,Kochia plant response rating (0 to 100 scale),kochia (Kochia scoparia); 125 g ai/ha,100
same,Kochia plant response rating (0 to 100 scale),kochia (Kochia scoparia); 500 g ai/ha,100
same,"Plant response rating, Galium",[9]; 16 g ai/ha,50
same,"Plant response rating, Galium",[9]; 31 g ai/ha,70
same,Galium plant response rating,[9]; 62 g ai/ha,80
same,Galium plant response rating,[9]; 125 g ai/ha,85
same,"Plant response rating, Velvetleaf",[10]; 16 g ai/ha,25
same,"Plant response rating, Velvetleaf",[10]; 31 g ai/ha,50
same,Velvetleaf plant response rating,[10]; 62 g ai/ha,65
same,Velvetleaf plant response rating,[10]; 125 g ai/ha,75
same,"Plant response rating, Ragweed",[11]; 16 g ai/ha,40
same,"Plant response rating, Ragweed",[11]; 31 g ai/ha,30
same,Ragweed plant response rating,[11]; 62 g ai/ha,50
same,Ragweed plant response rating,[11]; 125 g ai/ha,60
same,"Plant response rating, Waterhemp",[12]; 16 g ai/ha,90
same,"Plant response rating, Waterhemp",[12]; 31 g ai/ha,80
same,Waterhemp plant response rating,[12]; 62 g ai/ha,100
same,Waterhemp plant response rating,[12]; 125 g ai/ha,100
same,"Plant response rating, Barnyardgrass",[13],0
same,"Plant response rating, Ducksalad",[14],80
same,"Plant response rating, Sedge, Umbrella",[15],95
same,"Plant response rating, Rice",rice (Oryza sativa),0
same,"Plant response rating, Barnyardgrass","[16]; 62 g ai/ha, scale of 0 to 100",95
same,"Plant response rating, Barnyardgrass","[16]; 125 g ai/ha, scale of 0 to 100",100
same,"Plant response rating, Barnyardgrass","[16]; 16 g ai/ha, scale 0 to 100",20
same,"Plant response rating, Barnyardgrass","[16]; 31 g ai/ha, scale 0 to 100",40
CCCC(=O)c1c(Br)cccc1Oc1ncc(Cl)cn1 [Compound 75],Corn plant response rating (0 to 100 scale),corn (Zea mays); 125 g ai/ha,80
same,Corn plant response rating (0 to 100 scale),corn (Zea mays); 500 g ai/ha,90
same,Galium plant response rating (0 to 100 scale),[1]; 125 g ai/ha,80
same,Galium plant response rating (0 to 100 scale),[1]; 500 g ai/ha,100
same,Blackgrass plant response rating (0 to 100 scale),[2]; 125 g ai/ha,40
same,Blackgrass plant response rating (0 to 100 scale),[2]; 500 g ai/ha,60
same,"Ryegrass, Italian plant response rating",[3]; [17],40
same,"Ryegrass, Italian plant response rating (0 to 100 scale)",[3]; 500 g ai/ha,70
same,Barnyardgrass plant response rating (0 to 100 scale),[4]; 125 g ai/ha,90
same,Barnyardgrass plant response rating (0 to 100 scale),[4]; 500 g ai/ha,100
same,"Foxtail, Giant plant response rating (0 to 100 scale)",[5]; 125 g ai/ha,90
same,"Foxtail, Giant plant response rating (0 to 100 scale)",[5]; 500 g ai/ha,100
same,Pigweed plant response rating,[6]; [17],100
same,Pigweed plant response rating (0 to 100 scale),[6]; 500 g ai/ha,100
same,Wheat plant response rating,[7]; [17],20
same,Wheat plant response rating (0 to 100 scale),[7]; 500 g ai/ha,70
same,Ragweed plant response rating,[8]; [17],30
same,Ragweed plant response rating (0 to 100 scale),[8]; 500 g ai/ha,40
same,Kochia plant response rating,kochia (Kochia scoparia); [17],100
same,Kochia plant response rating (0 to 100 scale),kochia (Kochia scoparia); 500 g ai/ha,100
same,"Plant response rating, Galium",[9]; 16 g ai/ha,40
same,"Plant response rating, Galium",[9]; 31 g ai/ha,70
same,Galium plant response rating,[9]; 62 g ai/ha,70
same,Galium plant response rating,[9]; 125 g ai/ha,80
same,"Plant response rating, Velvetleaf",[10]; 16 g ai/ha,30
same,"Plant response rating, Velvetleaf",[10]; 31 g ai/ha,35
same,Velvetleaf plant response rating,[10]; 62 g ai/ha,70
same,Velvetleaf plant response rating,[10]; 125 g ai/ha,75
same,"Plant response rating, Ragweed",[11]; 16 g ai/ha,5
same,"Plant response rating, Ragweed",[11]; 31 g ai/ha,10
same,Ragweed plant response rating,[11]; 62 g ai/ha,50
same,Ragweed plant response rating,[11]; 125 g ai/ha,60
same,"Plant response rating, Waterhemp",[12]; 16 g ai/ha,85
same,"Plant response rating, Waterhemp",[12]; 31 g ai/ha,90
same,Waterhemp plant response rating,[12]; 62 g ai/ha,90
same,Waterhemp plant response rating,[12]; 125 g ai/ha,95
same,"Plant response rating, Barnyardgrass",[13],40
same,"Plant response rating, Ducksalad",[14],95
same,"Plant response rating, Sedge, Umbrella",[15],95
same,"Plant response rating, Rice",rice (Oryza sativa),35
same,"Plant response rating, Barnyardgrass","[16]; 62 g ai/ha, scale of 0 to 100",80
same,"Plant response rating, Barnyardgrass","[16]; 125 g ai/ha, scale of 0 to 100",100
same,"Plant response rating, Barnyardgrass","[16]; 16 g ai/ha, scale 0 to 100",5
same,"Plant response rating, Barnyardgrass","[16]; 31 g ai/ha, scale 0 to 100",60
